Experimental data: patent US20060234997A1, “Tetrahydro-pyridoazepin-8-ones and related compounds for the treatment of schizophrenia” (WARNER-LAMBERT COMPANY LLC, priority 2005, published 2006)

biological target: T1, Dopamine D2 receptor (hD2L) (Homo sapiens, UniProt P14416); assay: Dopamine D2 Receptor Binding Assay ([3H]spiperone, CHO-hD2L membranes); conditions: [3H]spiperone 0.4 nM, membrane preparation from CHO-hD2L cells
T1 construct: expressed in transfected cells; host or cells: CHO cells (CHO-hD2L)
T1 sequence (P14416 whole entry): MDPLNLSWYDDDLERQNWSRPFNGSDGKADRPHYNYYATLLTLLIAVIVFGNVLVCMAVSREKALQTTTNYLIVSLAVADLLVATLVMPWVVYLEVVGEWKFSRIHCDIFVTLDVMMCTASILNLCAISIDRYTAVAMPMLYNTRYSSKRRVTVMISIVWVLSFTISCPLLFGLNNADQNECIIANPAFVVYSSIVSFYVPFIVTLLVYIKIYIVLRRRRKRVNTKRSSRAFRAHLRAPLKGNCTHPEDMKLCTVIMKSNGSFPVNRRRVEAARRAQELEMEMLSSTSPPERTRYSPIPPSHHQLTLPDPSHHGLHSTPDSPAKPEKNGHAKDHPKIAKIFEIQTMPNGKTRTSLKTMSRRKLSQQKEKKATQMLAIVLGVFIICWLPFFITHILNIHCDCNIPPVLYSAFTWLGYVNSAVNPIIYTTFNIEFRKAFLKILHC
Text: The ability of the novel compounds of this invention to bind to the dopamine D2 receptor can be determined using conventional radioligand receptor binding assays. All receptors can be heterologously expressed in cell lines and binding assays can be conducted in membrane preparations from the cell lines using procedures outlined below. IC50 concentrations can be determined by nonlinear regression of concentration-dependent reduction in specific binding. The Cheng-Prussoff equation can be used to convert the IC50 to Ki concentrations.
[^3H]Spiperone binding to a membrane preparation from CHO-hD2L cells was carried out in 250 μl of 50 mM Tris-HCl buffer containing 100 mM NaCl, 1 mM MgCl2 and 1% DMSO at pH 7.4. Duplicate samples containing (in order of addition) the test compounds, 0.4 nM [^3H]spiperone and approximately 12 μg protein were incubated for 120 minutes at room temperature. Bound radioligand was separated by rapid filtration under reduced pressure through Whatman GF/B glass fiber filters previously treated with 0.3% polyethyleneimine. Radioactivity retained on the filter is determined by liquid scintillation spectrophotometry.

SMILES	Ki
CCc1cccc(N2CCN(CCCCOc3ccc4c(c3)NC(=O)NCC4)CC2)n1 [Example 33]	2.83 nM
O=C1CCCc2ccc(OCCCCN3CCN(c4cccc5ccc(F)cc45)CC3)nc2N1 [Example 8, 2-{4-[4-(7-Fluoro-naphthalen-1-yl)-piperazin-1-yl]-butoxy}-5,6,7,9-tetrahydro-pyrido[2,3-b]azepin-8-one]	1 nM
O=C1NCCc2ccc(OCCCCN3CCN(c4cccc5c4CCCC5)CC3)nc2N1 [Example 16, 2-{4-[4-(5,6,7,8-Tetrahydro-naphthalen-1-yl)-piperazin-1-yl]-butoxy}-5,6,7,9-tetrahydro-1,7,9-triaza-benzocyclohepten-8-one]	1.41 nM
O=C1CCCc2ccc(OCCCCN3CCN(c4cccc(Cl)c4Cl)CC3)nc2N1 [Example 3, 2-{4-[4-(2,3-dichloro-phenyl)-piperaxin-1-yl]-butoxy}-5,6,7,9-tetrahydro-pyrido[2,3-b]azepin-8-one]	5.48 nM
O=C1CCCc2ccc(OCCCCN3CCN(c4cccc5c4OCCCO5)CC3)nc2N1 [Example 9, 2-{4-[4-(3,4-Dihydro-2H-benzo[b][1,4]dioxepin-6-yl)-piperazin-1-yl]-butoxy}-5,6,7,9-tetrahydro-pyrido[2,3-b]azepin-8-one]	2 nM
O=C1NCCc2ccc(OCCCCN3CCN(c4cccc5ccccc45)CC3)nc2N1 [Example 15, 2-[4-(4-Naphthalen-1-yl-piperazin-1-yl)-butoxy]-5,6,7,9-tetrahydro-1,7,9-triaza-benzocyclohepten-8-one]	1 nM
Cc1cc(N2CCN(CCCCOc3ccc4c(c3)NC(=O)NCC4)CC2)c(Cl)cc1F [Example 31, 8-{4-[4-(2-Chloro-4-fluoro-5-methyl-phenyl)-piperazin-1-yl]-butoxy}-1,3,4,5-tetrahydro-benzo[d][1,3]diazepin-2-one]	6 nM
COc1ccc2cccc(N3CCN(CCCCOc4ccc5c(n4)NC(=O)NCC5)CC3)c2c1 [Example 21, 2-{4-[4-(7-Methoxy-naphthalen-1-yl)-piperazin-1-yl]-butoxy}-5,6,7,9-tetrahydro-1,7,9-triaza-benzocyclohepten-8-one]	0.4 nM
O=C1CCCc2ccc(OCCCCN3CCN(c4cccc5c4OCC5)CC3)nc2N1 [Example 7, 2-{4-[4-(2,3-Dihydro-benzofuran-7-yl)-piperazin-1-yl]-butoxy}-5,6,7,9-tetrahydro-pyrido[2,3-b]azepin-8-one]	3.46 nM
N#Cc1ccc2cccc(N3CCN(CCCCOc4ccc5c(n4)NC(=O)NCC5)CC3)c2c1 [Example 22, 8-{4-[4-(8-Oxo-6,7,8,9-tetrahydro-5H-1,7,9-triaza-benzocyclohepten-2-yloxy)-butyl]-piperazin-1-yl}-naphthalene-2-carbonitrile]	0.4 nM
O=C1CCCc2ccc(OCCCCN3CCN(c4cccc5c4CCC5)CC3)nc2N1 [Example 6, 2-[4-(4-Indan-4-yl-piperazin-1-yl)-butoxy]-5,6,7,9-tetrahydro-pyrido[2,3-b]azepin-8-one]	1 nM
O=C1NCCc2ccc(OCCCCN3CCN(c4cccc5c(F)cccc45)CC3)cc2N1 [Example 40, 8-{4-[4-(5-Fluoro-naphthalen-1-yl)-piperazin-1-yl]-butoxy}-1,3,4,5-tetrahydro-benzo[d][1,3]diazepin-2-one]	11.4 nM
O=C1NCCc2ccc(OCCCCN3CCN(c4cccc(Cl)c4Cl)CC3)nc2N1 [Example 14, 2-{4-[4-(2,3-Dichloro-phenyl)-piperazin-1-yl]-butoxy}-5,6,7,9-tetrahydro-1,7,9-triaza-benzocyclohepten-8-one]	1 nM
O=C1NCCc2ccc(OCCCCN3CCN(c4cccc5cccc(F)c45)CC3)cc2N1 [Example 42, 8-{4-[4-(8-Fluoro-naphthalen-1-yl)-piperazin-1-yl]-butoxy}-1,3,4,5-tetrahydro-benzo[d][1,3]diazepin-2-one]	2.32 nM
O=C1CCCc2ccc(OCCCCN3CCN(c4cccc5c4CCCC5)CC3)nc2N1 [Example 5, 2-{4-[4-(5,6,7,8-Tetrahydro-naphthalen-1-yl)-piperazin-1-yl]-butoxy}-5,6,7,9-tetrahydro-pyrido[2,3-b]azepin-8-one]	2.45 nM
O=C1NCCc2ccc(OCCCCN3CCN(c4cccc5ccc(F)cc45)CC3)cc2N1 [Example 38, 8-{4-[4-(7-Fluoro-naphthalen-1-yl)-piperazin-1-yl]-butoxy}-1,3,4,5-tetrahydro-benzo[d][1,3]diazepin-2-one]	2.22 nM
O=C1NCCc2ccc(OCCCCN3CCN(c4cccc5nsnc45)CC3)cc2N1 [Example 39, 8-{4-[4-(2,1,3-benzothiadiazol-4-yl)piperazin-1-yl]butoxy}-1,3,4,5-tetrahydro-2H-1,3-benzodiazepin-2-one]	2.6 nM

SMILES	Ki
O=C1CCCc2ccc(OCCCCN3CCN(c4cccc5ccccc45)CC3)nc2N1 [Example 2, 2-[4-(4-Naphthalen-1-yl-piperazin-1-yl)-butoxy]-5,6,7,9-tetrahydro-pyrido[2,3-b]azepin-8-one]	3.87 nM
O=C1NCCc2ccc(OCCCCN3CCN(c4ccc(F)cc4Cl)CC3)cc2N1 [Example 35, 8-{4-[4-(2-Chloro-4-fluoro-phenyl)-piperazin-1-yl]-butoxy}-1,3,4,5-tetrahydro-benzo[d][1,3]diazepin-2-one]	3 nM
O=C1NCCc2ccc(OCCCCN3CCN(c4ccc(F)c(Cl)c4Cl)CC3)cc2N1 [Example 36, 8-{4-[4-(2,3-Dichloro-4-fluoro-phenyl)-piperazin-1-yl]-butoxy}-1,3,4,5-tetrahydro-benzo[d][1,3]diazepin-2-one]	3 nM
CC1(C)Cc2ccc(OCCCN3CCN(c4cccc5ccccc45)CC3)cc2NC(=O)N1 [Example 60, 4,4-Dimethyl-8-[3-(4-naphthalen-1-yl-piperazin-1-yl)-propoxy]-1,3,4,5-tetrahydro-benzo[d][1,3]diazepin-2-one]	9.38 nM
O=C1NCCc2ccc(OCCCCN3CCN(c4cccc5c4OCCC5)CC3)nc2N1 [Example 17, 2-[4-(4-Chroman-8-yl-piperazin-1-yl)-butoxy]-5,6,7,9-tetrahydro-1,7,9-triaza-benzocyclohepten-8-one]	1 nM
N#Cc1ccc2cccc(N3CCN(CCCCOc4ccc5c(n4)NC(=O)CCC5)CC3)c2c1 [Example 10, 8-{4-[4-(8-Oxo-6,7,8,9-tetrahydro-5H-pyrido[2,3-b]azepin-2-yloxy)-butyl]-piperazin-1-yl}-naphthalene-2-carbonitrile]	2.79 nM
CN1C(=O)CCc2cccc(N3CCN(CCCCOc4ccc5c(n4)NC(=O)CCC5)CC3)c21 [Example 11, 2-{4-[4-(1-Methyl-2-oxo-1,2,3,4-tetrahydro-quinolin-8-yl)-piperazin-1-yl]-butoxy}-5,6,7,9-tetrahydro-pyrido[2,3-b]azepin-8-one]	18.9 nM
CC(C)c1cccc(N2CCN(CCCCOc3ccc4c(c3)NC(=O)NCC4)CC2)n1 [Example 34, 8-{4-[4-(6-Isopropyl-pyridin-2-yl)-piperazin-1-yl]-butoxy}-1,3,4,5-tetrahydro-benzo[d][1,3]diazepin-2-one]	2.68 nM
CN1C(=O)CCc2cccc(N3CCN(CCCCOc4ccc5c(n4)NC(=O)NCC5)CC3)c21 [Example 23, 2-{4-[4-(1-Methyl-2-oxo-1,2,3,4-tetrahydro-quinolin-8-yl)-piperazin-1-yl]-butoxy}-5,6,7,9-tetrahydro-1,7,9-triaza-benzocyclohepten-8-one]	3 nM
O=C1NCCc2ccc(OCCCN3CCN(c4cccc5ccc(F)cc45)CC3)cc2N1 [Example 44, 8-{3-[4-(7-Fluoro-naphthalen-1-yl)-piperazin-1-yl]-propoxy}-1,3,4,5-tetrahydro-benzo[d][1,3]diazepin-2-one]	5.44 nM
O=C1NCCc2ccc(OCCCN3CCN(c4cccc5ccccc45)CC3)cc2N1 [Example 43, 8-[3-(4-Naphthalen-1-yl-piperazin-1-yl)-propoxy]-1,3,4,5-tetrahydro-benzo[d][1,3]diazepin-2-one]	3.24 nM
O=C1CCCc2ccc(OCCCCN3CCN(c4cccc5c4OCCC5)CC3)nc2N1 [Example 4, 2-[4-(4-Chroman-8-yl-piperazin-1-yl)-butoxy]-5,6,7,9-tetrahydro-pyrido[2,3-b]azepin-8-one]	2 nM
O=C1NCCc2ccc(OCCCCN3CCN(c4cccc5ccccc45)CC3)cc2N1 [Example 32, 8-[4-(4-Naphthalen-1-yl-piperazin-1-yl)-butoxy]-1,3,4,5-tetrahydro-benzo[d][1,3]diazepin-2-one]	3.45 nM
COc1ccc2cccc(N3CCN(CCCOc4ccc5c(c4)NC(=O)NCC5)CC3)c2n1 [Example 41, 8-{3-[4-(2-Methoxy-quinolin-8-yl)-piperazin-1-yl]-propoxy}-1,3,4,5-tetrahydro-benzo[d][1,3]diazepin-2-one]	1.04 nM
O=C1NCCc2ccc(OCCCCN3CCN(c4cccc5c4COCC5)CC3)cc2N1 [Example 45, 8-[4-(4-Isochroman-8-yl-piperazin-1-yl)-butoxy]-1,3,4,5-tetrahydro-benzo[d][1,3]diazepin-2-one]	6.14 nM
CC1(C)Cc2ccc(OCCCCN3CCN(c4cccc5ccccc45)CC3)cc2NC(=O)N1 [Example 59, 4,4-Dimethyl-8-[4-(4-naphthalen-1-yl-piperazin-1-yl)-butoxy]-1,3,4,5-tetrahydro-benzo[d][1,3]diazepin-2-one]	3 nM
Cc1c(F)ccc(N2CCN(CCCCOc3ccc4c(c3)NC(=O)NCC4)CC2)c1Cl [Example 30, 8-{4-[4-(2-Chloro-4-fluoro-3-methyl-phenyl)-piperazin-1-yl]-butoxy}-1,3,4,5-tetrahydro-benzo[d][1,3]diazepin-2-one]	2 nM
